According to ChEMBL document CHEMBL6109088 (J Med Chem, 2025):

Key:
in vivo [1] = conditions: male, Wistar Hannover, rat, po, 10 mg/kg
in vivo [2] = conditions: male, Wistar Hannover, rat, plasma, iv, 1 mg/kg
in vivo [3] = conditions: male, Wistar Hannover, rat, iv, 1 mg/kg
in vivo [4] = conditions: male, Wistar Hannover, rat, iv, 1 mg/kg; remark: listed apart in the source
in vivo [5] = conditions: male, Wistar Hannover, rat, po, 10 mg/kg; remark: listed apart in the source
in vivo [6] = conditions: male, Wistar Hannover, rat, po, 10 mg/kg; remark: listed apart in the source
in vivo [7] = conditions: male, Wistar Hannover, rat, po, 10 mg/kg; remark: listed apart in the source
in vivo [8] = conditions: male, Wistar Hannover, rat, po, 10 mg/kg; remark: listed apart in the source
in vivo [9] = conditions: male, Wistar Hannover, rat, po, 100 mg/kg
in vivo [10] = conditions: male, Wistar Hannover, rat, po, 100 mg/kg; remark: listed apart in the source
in vivo [11] = conditions: male, Wistar Hannover, rat, po, 100 mg/kg; remark: listed apart in the source
in vivo [12] = conditions: male, cynomolgus monkey, iv, 1 mg/kg
in vivo [13] = conditions: male, cynomolgus monkey, plasma, iv, 1 mg/kg
in vivo [14] = conditions: male, cynomolgus monkey, iv, 1 mg/kg; remark: listed apart in the source
in vivo [15] = conditions: male, cynomolgus monkey, iv, 1 mg/kg; remark: listed apart in the source
in vivo [16] = conditions: male, Wistar Hannover, rat, po, 10 mg/kg; remark: listed apart in the source
in vivo [17] = conditions: male, Wistar Hannover, rat, po, 10 mg/kg; remark: listed apart in the source
in vivo [18] = conditions: male, Wistar Hannover, rat, po, 10 mg/kg; remark: listed apart in the source
in vivo [19] = conditions: male, Wistar Hannover, rat, po, 100 mg/kg; remark: listed apart in the source
in vivo [20] = conditions: male, Wistar Hannover, rat, po, 100 mg/kg; remark: listed apart in the source
in vivo [21] = conditions: male, Wistar Hannover, rat, po, 100 mg/kg; remark: listed apart in the source
in vivo [22] = conditions: male, cynomolgus monkey, po, 10 mg/kg
in vivo [23] = conditions: male, cynomolgus monkey, po, 10 mg/kg; remark: listed apart in the source
in vivo [24] = conditions: male, cynomolgus monkey, po, 10 mg/kg; remark: listed apart in the source
in vivo [25] = conditions: male, cynomolgus monkey, po, 100 mg/kg
in vivo [26] = conditions: male, cynomolgus monkey, po, 100 mg/kg; remark: listed apart in the source
in vivo [27] = conditions: male, cynomolgus monkey, po, 100 mg/kg; remark: listed apart in the source
in vivo [28] = conditions: male, cynomolgus monkey, po, 100 mg/kg; remark: listed apart in the source
in vivo [29] = conditions: male, cynomolgus monkey, po, 100 mg/kg; remark: listed apart in the source
in vivo [30] = conditions: male, cynomolgus monkey, po, 100 mg/kg; remark: listed apart in the source
in vitro [31] = conditions: dog, MDCK
in vitro [32] = conditions: human, liver microsomes
in vivo [33] = conditions: rat, po
SARS-CoV-2 = experiment: microbe, parasite or virus in culture; conditions: Severe acute respiratory syndrome coronavirus 2, USA-WA1/2020, Vero C1008
physchem = conditions: octanol/water

Structure (SMILES): CC(C)(C)[C@H](NC(=O)C(F)(F)F)C(=O)N1C[C@H]2[C@@H]([C@H]1C(=O)N[C@H](C#N)C[C@@H]1CCNC1=O)C2(C)C
- AUC(0-inf) at 4 h (in vivo [1]): 3190 ng·h/mL
- clearance at 4 h (in vivo [2]): 27.2 mL/min/kg
- Vd at 4 h (in vivo [3]): 1.8 L/kg
- half-life at 4 h (in vivo [4]): 5.1 h
- Cmax at 4 h (in vivo [5]): 1290 ng/mL
- Tmax at 4 h (in vivo [6]): 1.5 h
- half-life at 4 h (in vivo [7]): 4 h
- bioavailability at 4 h (in vivo [8]): 50%
- Tmax at 4 h (in vivo [9]): 0.75 h
- AUC(0-inf) at 4 h (in vivo [10]): 68300 ng·h/mL
- bioavailability at 4 h (in vivo [11]): 108%
- AUC(0-inf) (in vivo [12]): 977 ng·h/mL
- clearance (in vivo [13]): 17.1 mL/min/kg
- Vd (in vivo [14]): 0.33 L/kg
- half-life (in vivo [15]): 0.79 h
- Cmax at 4 h (in vivo [16]): 1450 ng/mL
- AUC(0-inf) at 4 h (in vivo [17]): 2170 ng·h/mL
- half-life at 4 h (in vivo [18]): 2.8 h
- Tmax at 4 h (in vivo [19]): 1.4 h
- AUC(0-inf) at 4 h (in vivo [20]): 18000 ng·h/mL
- bioavailability at 4 h (in vivo [21]): 29%
- Cmax (in vivo [22]): 1450 ng/mL
- AUC(0-t) (in vivo [23]): 831 ng·h/mL
- bioavailability (in vivo [24]): 8.5%
- Cmax (in vivo [25]): 16300 ng/mL
- Tmax (in vivo [26]): 1 h
- AUC(0-inf) (in vivo [27]): 37200 ng·h/mL
- Cmax (in vivo [28]): 1560 ng/mL
- Tmax (in vivo [29]): 0.5 h
- AUC(0-inf) (in vivo [30]): 4400 ng·h/mL
- Papp A→B (in vitro [31]): 1.71 ×10⁻⁶ cm/s
- microsomal CLint (in vitro [32]): 24.5 µL/min/mg

Structure (SMILES): CNC(=O)N[C@H](C(=O)N1C[C@H]2[C@@H]([C@H]1C(=O)N[C@H](C#N)C[C@@H]1CCNC1=O)C2(C)C)C(C)(C)C
- Papp A→B (in vitro [31]): 0.62 ×10⁻⁶ cm/s
- microsomal CLint (in vitro [32]): < 7.12 µL/min/mg

Structure (SMILES): CC(C)[C@H](NC(=O)C(F)(F)F)C(=O)N1C[C@H]2[C@@H]([C@H]1C(=O)N[C@H](C#N)C[C@@H]1CCNC1=O)C2(C)C
- bioavailability (in vivo [33]): 20%
- Papp A→B (in vitro [31]): 0.721 ×10⁻⁶ cm/s
- microsomal CLint (in vitro [32]): 7.9 µL/min/mg
- EC50 (SARS-CoV-2): 229 nM

Structure (SMILES): COC(=O)N[C@H](C(=O)N1C[C@H]2[C@@H]([C@H]1C(=O)N[C@H](C#N)C[C@@H]1CCNC1=O)C2(C)C)C(C)(C)C
- bioavailability (in vivo [33]): 21%
- Papp A→B (in vitro [31]): 0.61 ×10⁻⁶ cm/s
- microsomal CLint (in vitro [32]): 8.1 µL/min/mg

Structure (SMILES): CC(=O)N[C@H](C(=O)N1C[C@H]2[C@@H]([C@H]1C(=O)N[C@H](C#N)C[C@@H]1CCNC1=O)C2(C)C)C(C)(C)C
- bioavailability (in vivo [33]): 2.8%
- Papp A→B (in vitro [31]): < 0.302 ×10⁻⁶ cm/s
- microsomal CLint (in vitro [32]): < 7 µL/min/mg
- EC50 (SARS-CoV-2): 5310 nM

Structure (SMILES): COc1cccc2[nH]c(C(=O)N[C@@H](CC(C)C)C(=O)N[C@H](C#N)C[C@@H]3CCNC3=O)cc12
- bioavailability (in vivo [33]): 7%
- Papp A→B (in vitro [31]): 0.945 ×10⁻⁶ cm/s

Structure (SMILES): CC(C)(C)[C@H](NC(=O)C(F)(F)F)C(=O)N1C[C@H]2[C@@H]([C@H]1C(=O)N[C@@H](C[C@@H]1CCNC1=O)C(=O)CO)C2(C)C
- Papp A→B (in vitro [31]): < 0.481 ×10⁻⁶ cm/s
- microsomal CLint (in vitro [32]): < 7 µL/min/mg
- EC50 (SARS-CoV-2): < 331 nM

Structure (SMILES): CC(C)(C)[C@H](NS(=O)(=O)C(F)(F)F)C(=O)N1C[C@H]2[C@@H]([C@H]1C(=O)N[C@H](C#N)C[C@@H]1CCNC1=O)C2(C)C
- Papp A→B (in vitro [31]): 0.7 ×10⁻⁶ cm/s
- microsomal CLint (in vitro [32]): < 7.47 µL/min/mg
- EC50 (SARS-CoV-2): 179 nM

Structure (SMILES): COc1cccc2[nH]c(C(=O)N3C[C@H]4[C@@H]([C@H]3C(=O)N[C@@H](C[C@@H]3CCNC3=O)C(=O)c3nc5ccccc5s3)C4(C)C)cc12
- Papp A→B (in vitro [31]): 7.3 ×10⁻⁶ cm/s
- microsomal CLint (in vitro [32]): 337 µL/min/mg
- logD (physchem): 4.2
- EC50 (SARS-CoV-2): 5590 nM

Structure (SMILES): CC(=O)N[C@H](C(=O)N1C[C@H]2[C@@H]([C@H]1C(=O)N[C@@H](C[C@@H]1CCNC1=O)C(=O)c1nc3ccccc3s1)C2(C)C)C(C)(C)C
- Papp A→B (in vitro [31]): 0.7 ×10⁻⁶ cm/s
- microsomal CLint (in vitro [32]): 27 µL/min/mg
- logD (physchem): 2.4
- EC50 (SARS-CoV-2): 702 nM

Structure (SMILES): COCC(=O)[C@H](C[C@@H]1CCNC1=O)NC(=O)[C@@H]1[C@@H]2[C@H](CN1C(=O)[C@@H](NC(=O)C(F)(F)F)C(C)(C)C)C2(C)C
- Papp A→B (in vitro [31]): 0.499 ×10⁻⁶ cm/s
- microsomal CLint (in vitro [32]): 11.8 µL/min/mg
- EC50 (SARS-CoV-2): 134 nM
